How the values were obtained:
[1] = Displacement of [3H]KA from KA receptor in rat cortical synaptosomes; type: subcellular, Brain
[2] = Displacement of [3H]AMPA from AMPA receptor in rat cortical synaptosomes; type: subcellular, Brain
[3] = target: Glutamate receptor 3 (Rattus norvegicus) (UniProt P19492); experiment: Agonist activity at rat recombinant GluR3 flip isomer expressed in HEK293 cells assessed as increase in intracellular calcium level by Fluo-4/AM assay relative to glutamic acid; type: functional, cell-based
[4] = target: Glutamate receptor 1 (Rattus norvegicus) (UniProt P19490); experiment: Agonist activity at rat recombinant GluR1 flip isoform expressed in HEK293 cells assessed as increase in intracellular calcium level by Fluo-4/AM assay relative to glutamic acid; type: functional, cell-based
[5] = target: Glutamate receptor 4 (Rattus norvegicus) (UniProt P19493); experiment: Agonist activity at rat recombinant GluR4 flip isomer expressed in HEK293 cells assessed as increase in intracellular calcium level by Fluo-4/AM assay relative to glutamic acid; type: functional, cell-based
Glutamate receptor 4 [6] = target: T1, Glutamate receptor 4 (Rattus norvegicus, UniProt P19493); experiment: Agonist activity at rat recombinant GluR4 flip isomer expressed in HEK293 cells assessed as increase in intracellular calcium level by Fluo-4/AM assay; type: functional, cell-based
Glutamate receptor 2 [7] = target: T2, Glutamate receptor 2 (Rattus norvegicus, UniProt P19491)
Description: Agonist activity at rat recombinant GluR2(Q) RNA-edited isoform expressed in HEK293 cells assessed as increase in intracellular calcium level by Fluo-4/AM assay

[8] = target: T3, Glutamate receptor ionotropic, kainate 2 (Rattus norvegicus, UniProt P42260); experiment: Agonist activity at rat recombinant GluR6(Q) RNA-edited isoform expressed in HEK293 cells assessed as increase in intracellular calcium level by Fluo-4/AM assay; type: functional, cell-based
Glutamate receptor 2 [9] = target: T2, Glutamate receptor 2; experiment: Displacement of [3H]AMPA from rat recombinant GluR2(R) RNA-edited flop isoform expressed in baculovirus infected Sf9 cells
Glutamate receptor 4 [10] = target: T1, Glutamate receptor 4; experiment: Displacement of [3H]AMPA from rat recombinant GluR4 flop isoform expressed in baculovirus infected Sf9 cells
Glutamate receptor 1 [11] = target: T4, Glutamate receptor 1 (Rattus norvegicus, UniProt P19490); experiment: Agonist activity at rat recombinant GluR1 flip isoform expressed in HEK293 cells assessed as increase in intracellular calcium level by Fluo-4/AM assay; type: functional, cell-based
[12] = target: T5, Glutamate receptor ionotropic, kainate 1 (Rattus norvegicus, UniProt P22756); experiment: Agonist activity at ConA-treated rat GluR5(Q) RNA-edited isoform expressed in Xenopus laevis oocytes assessed as glutamic acid-induced maximal current by two-electrode voltage clamp method; type: functional, cell-based, Oocyte
Glutamate receptor 3 [13] = target: T6, Glutamate receptor 3 (Rattus norvegicus, UniProt P19492); experiment: Agonist activity at rat recombinant GluR3 flip isomer expressed in HEK293 cells assessed as increase in intracellular calcium level by Fluo-4/AM assay; type: functional, cell-based
Glutamate receptor 1 [14] = target: T4, Glutamate receptor 1; experiment: Displacement of [3H]AMPA from rat recombinant GluR1 flop isoform expressed in baculovirus infected Sf9 cells
[15] = target: Glutamate receptor ionotropic, kainate 3 (Rattus norvegicus, UniProt P42264); experiment: Displacement of [3H]SYM from rat recombinant GluR7A expressed in baculovirus infected Sf9 cells
[16] = target: T5, Glutamate receptor ionotropic, kainate 1
Description: Agonist activity at rat recombinant GluR5(Q) RNA-edited isoform expressed in HEK293 cells assessed as increase in intracellular calcium level by Fluo-4/AM assay

[17] = target: Glutamate NMDA receptor; Grin1/Grin2a (Rattus norvegicus, UniProt P35439+Q00959); experiment: Agonist activity at ConA-treated rat NR1/NR2A expressed in Xenopus laevis oocytes assessed as glycine-induced maximal current by two-electrode voltage clamp method; type: functional, cell-based, Oocyte
[18] = target: T3, Glutamate receptor ionotropic, kainate 2; experiment: Displacement of [3H]KA from rat recombinant GluR6(VCR) RNA-edited isoform expressed in baculovirus infected Sf9 cells
Glutamate receptor 1 [19] = target: T4, Glutamate receptor 1; experiment: Agonist activity at ConA-treated rat GluR1 flip isoform expressed in Xenopus laevis oocytes assessed as glutamic acid-induced maximal current by two-electrode voltage clamp method; type: functional, cell-based, Oocyte
[20] = target: T5, Glutamate receptor ionotropic, kainate 1; experiment: Displacement of [3H]SYM from rat recombinant GluR5(Q) RNA-edited isoform expressed in baculovirus infected Sf9 cells
Glutamate NMDA receptor [21] = experiment: Displacement of [3H]CGP from NMDA receptor in rat cortical synaptosomes; type: subcellular, Brain
Glutamate receptor 3 [22] = target: T6, Glutamate receptor 3; experiment: Displacement of [3H]AMPA from rat recombinant GluR3 flop isoform expressed in baculovirus infected Sf9 cells
Glutamate NMDA receptor [23] = experiment: Displacement of […] from NMDA receptor in rat cortical synaptosomes; type: subcellular, Brain

T2 sequence (P19491 whole entry, canonical isoform): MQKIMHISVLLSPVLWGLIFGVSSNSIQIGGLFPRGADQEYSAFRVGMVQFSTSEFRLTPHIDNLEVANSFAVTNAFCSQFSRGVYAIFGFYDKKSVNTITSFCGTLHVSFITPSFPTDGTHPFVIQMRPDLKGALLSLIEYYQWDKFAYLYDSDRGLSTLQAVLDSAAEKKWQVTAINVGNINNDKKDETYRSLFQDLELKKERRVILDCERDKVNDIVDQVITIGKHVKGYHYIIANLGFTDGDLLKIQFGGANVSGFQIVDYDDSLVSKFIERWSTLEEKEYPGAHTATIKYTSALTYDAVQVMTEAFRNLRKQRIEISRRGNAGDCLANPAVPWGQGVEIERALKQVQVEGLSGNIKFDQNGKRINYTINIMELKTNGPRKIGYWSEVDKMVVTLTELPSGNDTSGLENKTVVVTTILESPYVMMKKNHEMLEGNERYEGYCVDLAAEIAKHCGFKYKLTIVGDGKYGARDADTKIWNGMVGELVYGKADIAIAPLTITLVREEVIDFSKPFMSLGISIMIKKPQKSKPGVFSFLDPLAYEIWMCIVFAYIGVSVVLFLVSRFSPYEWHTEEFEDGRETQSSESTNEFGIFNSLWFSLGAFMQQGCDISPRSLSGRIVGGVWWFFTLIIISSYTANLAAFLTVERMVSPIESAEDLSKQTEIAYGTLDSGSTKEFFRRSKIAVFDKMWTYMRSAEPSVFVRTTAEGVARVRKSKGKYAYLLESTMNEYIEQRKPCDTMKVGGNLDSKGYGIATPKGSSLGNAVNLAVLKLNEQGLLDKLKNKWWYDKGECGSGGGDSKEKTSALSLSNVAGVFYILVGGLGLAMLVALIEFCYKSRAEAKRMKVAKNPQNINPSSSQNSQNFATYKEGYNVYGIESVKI
Sequence of Glutamate receptor 3 (Rattus norvegicus) (P19492 whole entry, canonical isoform): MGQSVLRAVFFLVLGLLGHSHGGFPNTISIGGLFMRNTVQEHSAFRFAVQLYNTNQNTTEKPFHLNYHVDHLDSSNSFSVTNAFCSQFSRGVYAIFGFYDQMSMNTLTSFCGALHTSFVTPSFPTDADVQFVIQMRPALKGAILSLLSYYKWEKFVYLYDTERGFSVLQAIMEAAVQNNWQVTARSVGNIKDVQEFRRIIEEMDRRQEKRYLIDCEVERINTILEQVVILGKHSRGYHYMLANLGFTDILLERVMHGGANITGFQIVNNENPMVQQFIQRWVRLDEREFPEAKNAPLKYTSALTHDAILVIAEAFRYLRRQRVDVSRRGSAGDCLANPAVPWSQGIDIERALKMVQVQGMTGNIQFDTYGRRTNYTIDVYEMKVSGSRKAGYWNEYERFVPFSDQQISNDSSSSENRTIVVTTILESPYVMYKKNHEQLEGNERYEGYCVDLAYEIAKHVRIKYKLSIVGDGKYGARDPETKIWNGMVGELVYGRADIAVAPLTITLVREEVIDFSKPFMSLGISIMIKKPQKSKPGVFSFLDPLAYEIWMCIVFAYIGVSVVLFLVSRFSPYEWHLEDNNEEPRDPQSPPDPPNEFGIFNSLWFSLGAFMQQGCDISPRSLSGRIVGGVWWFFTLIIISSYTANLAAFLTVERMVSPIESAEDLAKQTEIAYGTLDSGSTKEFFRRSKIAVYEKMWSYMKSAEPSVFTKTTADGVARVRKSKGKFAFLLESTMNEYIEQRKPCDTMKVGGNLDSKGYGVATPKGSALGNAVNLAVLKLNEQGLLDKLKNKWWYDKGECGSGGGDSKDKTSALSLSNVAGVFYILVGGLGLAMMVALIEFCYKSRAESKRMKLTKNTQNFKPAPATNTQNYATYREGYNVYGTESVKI
T6 sequence (P19492 whole entry, canonical isoform): as above
T4 sequence (P19490 whole entry, canonical isoform): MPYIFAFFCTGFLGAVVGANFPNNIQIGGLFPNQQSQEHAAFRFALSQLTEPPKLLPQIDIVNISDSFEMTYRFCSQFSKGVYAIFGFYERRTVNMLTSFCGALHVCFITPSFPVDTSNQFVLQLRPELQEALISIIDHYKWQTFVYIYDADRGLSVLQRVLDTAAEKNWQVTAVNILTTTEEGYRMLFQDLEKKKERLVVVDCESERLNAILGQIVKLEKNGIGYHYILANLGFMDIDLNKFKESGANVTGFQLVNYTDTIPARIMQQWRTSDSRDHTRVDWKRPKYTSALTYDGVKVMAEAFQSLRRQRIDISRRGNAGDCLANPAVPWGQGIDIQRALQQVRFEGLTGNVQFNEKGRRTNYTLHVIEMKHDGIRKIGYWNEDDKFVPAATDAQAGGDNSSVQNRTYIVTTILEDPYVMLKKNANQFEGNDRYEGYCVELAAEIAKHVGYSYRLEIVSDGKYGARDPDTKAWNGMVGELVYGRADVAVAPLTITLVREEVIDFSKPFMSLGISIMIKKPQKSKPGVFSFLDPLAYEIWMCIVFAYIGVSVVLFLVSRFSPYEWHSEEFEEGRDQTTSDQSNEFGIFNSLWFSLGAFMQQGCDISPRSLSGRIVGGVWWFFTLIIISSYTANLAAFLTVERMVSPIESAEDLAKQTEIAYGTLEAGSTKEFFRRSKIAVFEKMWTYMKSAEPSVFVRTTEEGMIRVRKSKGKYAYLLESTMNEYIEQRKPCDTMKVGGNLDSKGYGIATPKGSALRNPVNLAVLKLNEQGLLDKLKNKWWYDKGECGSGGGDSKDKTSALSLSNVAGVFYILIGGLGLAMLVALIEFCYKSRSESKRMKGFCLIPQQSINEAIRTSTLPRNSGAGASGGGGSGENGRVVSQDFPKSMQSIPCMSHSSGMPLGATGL
Sequence of Glutamate receptor 1 (Rattus norvegicus) (P19490 whole entry, canonical isoform): as above
T5 sequence (P22756 whole entry, canonical isoform): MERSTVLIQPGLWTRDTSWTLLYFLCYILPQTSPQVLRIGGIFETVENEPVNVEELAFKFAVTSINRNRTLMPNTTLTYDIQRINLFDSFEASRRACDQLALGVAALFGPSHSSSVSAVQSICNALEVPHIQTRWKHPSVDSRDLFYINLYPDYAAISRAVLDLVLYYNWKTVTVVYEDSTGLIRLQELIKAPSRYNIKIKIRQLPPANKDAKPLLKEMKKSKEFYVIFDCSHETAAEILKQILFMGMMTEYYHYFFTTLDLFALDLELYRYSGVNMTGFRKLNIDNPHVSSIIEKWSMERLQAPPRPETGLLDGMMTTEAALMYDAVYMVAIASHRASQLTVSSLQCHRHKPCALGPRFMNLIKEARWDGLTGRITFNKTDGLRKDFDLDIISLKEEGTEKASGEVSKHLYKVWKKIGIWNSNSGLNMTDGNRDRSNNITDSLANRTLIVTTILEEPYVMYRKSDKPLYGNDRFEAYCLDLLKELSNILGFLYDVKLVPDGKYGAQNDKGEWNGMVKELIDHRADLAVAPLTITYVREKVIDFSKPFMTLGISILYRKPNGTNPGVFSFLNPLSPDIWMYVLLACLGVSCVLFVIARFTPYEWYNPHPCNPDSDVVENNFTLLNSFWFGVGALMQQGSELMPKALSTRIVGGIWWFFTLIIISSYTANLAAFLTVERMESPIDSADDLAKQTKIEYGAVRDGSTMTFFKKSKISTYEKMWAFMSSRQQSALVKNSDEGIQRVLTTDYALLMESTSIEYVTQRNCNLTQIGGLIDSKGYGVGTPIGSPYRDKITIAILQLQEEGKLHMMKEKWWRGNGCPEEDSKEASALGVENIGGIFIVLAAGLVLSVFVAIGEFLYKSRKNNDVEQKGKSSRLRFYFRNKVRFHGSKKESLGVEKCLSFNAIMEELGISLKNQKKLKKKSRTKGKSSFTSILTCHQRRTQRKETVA
T1 sequence (P19493 whole entry): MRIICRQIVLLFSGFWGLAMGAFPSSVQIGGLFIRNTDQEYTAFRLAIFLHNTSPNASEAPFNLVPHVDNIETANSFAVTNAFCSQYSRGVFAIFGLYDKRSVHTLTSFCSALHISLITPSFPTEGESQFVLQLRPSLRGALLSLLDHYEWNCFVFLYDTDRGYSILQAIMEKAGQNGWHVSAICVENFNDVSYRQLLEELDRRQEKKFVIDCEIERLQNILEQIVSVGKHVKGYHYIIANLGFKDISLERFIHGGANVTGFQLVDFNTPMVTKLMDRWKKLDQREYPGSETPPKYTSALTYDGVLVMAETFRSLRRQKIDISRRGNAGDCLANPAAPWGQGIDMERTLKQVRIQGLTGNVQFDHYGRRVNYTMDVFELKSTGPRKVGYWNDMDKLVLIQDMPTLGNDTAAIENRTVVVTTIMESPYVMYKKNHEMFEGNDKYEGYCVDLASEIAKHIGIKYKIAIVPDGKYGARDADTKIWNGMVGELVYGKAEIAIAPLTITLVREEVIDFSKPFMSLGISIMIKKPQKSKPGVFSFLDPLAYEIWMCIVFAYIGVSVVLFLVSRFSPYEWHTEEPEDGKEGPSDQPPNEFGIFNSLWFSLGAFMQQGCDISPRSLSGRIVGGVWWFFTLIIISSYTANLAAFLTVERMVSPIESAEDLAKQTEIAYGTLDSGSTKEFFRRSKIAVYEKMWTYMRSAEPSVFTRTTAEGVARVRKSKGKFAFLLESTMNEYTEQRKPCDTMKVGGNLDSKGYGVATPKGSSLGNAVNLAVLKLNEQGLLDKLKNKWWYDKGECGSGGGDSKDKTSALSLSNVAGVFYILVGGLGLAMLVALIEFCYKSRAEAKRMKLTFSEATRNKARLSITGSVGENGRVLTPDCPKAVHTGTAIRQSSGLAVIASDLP
Sequence of Glutamate receptor 4 (Rattus norvegicus) (P19493 whole entry): as above

Row | Compound | IC50 [1] [µM] | IC50 [2] [µM] | Activity [3] [%] | Activity [4] [%] | Activity [5] [%] | EC50 (Glutamate receptor 4 [6]; read-out: EC50) [µM] | EC50 (Glutamate receptor 2 [7]) [µM] | Ki (Glutamate receptor 2 [9]) [µM] | Ki (Glutamate receptor 4 [10]) [µM] | EC50 (Glutamate receptor 1 [11]) [µM] | EC50 (Glutamate receptor 3 [13]; read-out: EC50) [µM] | Ki (Glutamate receptor 1 [14]) [µM] | EC50 (Glutamate receptor 1 [19]) [µM] | Ki (Glutamate NMDA receptor [21]) [µM] | Ki (Glutamate receptor 3 [22]) [µM] | further results
1 | Cc1onc(O)c1C[C@H](N)C(=O)O [(S)-AMPA] | > 100 | 0.039 | – | – | – | – | – | – | – | – | – | – | – | – | – | –
2 | C=C(C)[C@H]1CN[C@H](C(=O)O)[C@H]1CC(=O)O [KAINIC ACID] | – | – | 45 | 18 | 55 | 47 | – | – | – | – | – | – | – | – | – | –
3 | CC1CCC=C(C[C@H](N)C(=O)O)c2c(O)noc21 (mixture of isomers) | 8.3 | 9.7 | 46 | 29 | 68 | 35 | 160 | 6.31 | 2.2 | 70 | 48 | 1.55 | 70 | > 100 | 1.11 | EC50 [8]: > 1000 µM; EC50 [12]: 0.24 µM; EC50 (Glutamate receptor 3 [13]; read-out: pEC50 (converted)): 63.1 µM; Ki [15]: 1.38 µM; EC50 [16]: 0.86 µM; EC50 [17]: > 1000 µM; Ki [18]: > 100 µM; Ki [20]: 0.00508 µM; EC50 (Glutamate receptor 4 [6]; read-out: pEC50 (converted)): 158 µM
4 | CC(C)(C)c1o[nH]c(=O)c1C[C@H](N)C(=O)O | – | – | – | – | – | – | > 1000 | 1.66 | 2.14 | 730 | 630 | 2.78 | 62 | – | 2.04 | Ki (Glutamate NMDA receptor [23]): > 100 µM
5 | CC(C)(C)c1onc(O)c1C[C@H](N)C(=O)O | 23 | 1.8 | 100 | 101 | 102 | – | – | – | – | – | – | – | – | – | – | EC50 (Glutamate receptor 4 [6]; hek293, read-out: EC50): 150 µM
6 | N[C@@H](CC1=CCCCc2onc(O)c21)C(=O)O | 1.6 | 0.28 | 54 | 28 | 79 | 6.7 | 92 | 0.175 | 0.202 | 32 | 13 | 0.232 | 4.5 | > 100 | 0.173 | –

From ChEMBL document CHEMBL1151943, “The glutamate receptor GluR5 agonist (S)-2-amino-3-(3-hydroxy-7,8-dihydro-6H-cyclohepta[d]isoxazol-4-yl)propionic acid and the 8-methyl analogue: synthesis, molecular pharmacology, and biostructural characterization” (J Med Chem, 2009)
